From PMC3412796, “High-Throughput Screening and Rapid Inhibitor Triage Using an Infectious Chimeric Hepatitis C Virus” (PLoS ONE, 2012)
Marks after values point to notes of the source that are not given here.

How the values were obtained:
gt 1a/2a-Rluc virus [1] = test: Virus foci expansion by HCV Core immunofluorescence; assay type: cell-based, Hepatitis C virus; settings: EI 1 µM added 16 h post-entry, LY411575 0.5 µM
gt 1a/2a-Rluc virus [2] = test: HCV Core Cellomics ArrayScan assay (HCS); settings: 96 h, Huh-7.5 cells, HCV Core Cellomics readout, average ± SD of at least three experiments
Protocol: For compound library screening, infections were performed in 384-well plates by pre-mixing 400 ffu of gt 1a/2a-Rluc virus with 1×10^4 Huh-7.5 cells and dispensing 50 µl on top of 150 nl of compound in DMSO (final 0.3% DMSO) followed by incubation at 37°C. Renilla luciferase activity, reflecting the degree of virus replication, was measured 96 h after infection using the EnduRen reagent (Promega). […] Maximum activity (100% of control) and background were derived from control wells containing DMSO alone or from uninfected wells, respectively. The individual signals in each of the compound test wells were then divided by the averaged control values (wells lacking inhibitor), after background subtraction, and multiplied by 100% to determine percent activity. The corresponding % inhibition values were then calculated by subtracting this value from 100. Dose-response assays were performed in triplicate and average EC50 values (reflecting the concentration at which 50% inhibition of virus replication was achieved) were calculated using XLfit for Excel (ID Business Solutions, Burlington, MA). Cytotoxicity studies were performed in parallel using CellTiter-Glo (Promega). […] The total number of cells per well (Hoechst staining) and infected cells per well (HCV Core) was measured using a Cellomics ArrayScan HCS Reader (Thermo Scientific) and EC50 values calculated as described above. […]

gt 1a/2a-Rluc virus [3] = test: HCVcc infectious virus release assay; settings: 2× EC90 of compound, 48 h pi
Protocol: Cells were incubated at 37°C for 48 h and supernatants were collected. Supernatants were clarified by centrifugation, diluted 20 fold and used to infect naïve Huh-7.5 cells in 96 well plates. Renilla luciferase expression was measured in both producer cells and target cells 48 h post-infection as described above.

gt 1a/2a-Rluc virus [4] = test: HCVcc resistance selection; settings: virus cultured at 5× EC50 up to 10 weeks or until resistance observed
Protocol: The gt 1a/2a-Rluc virus was used to infect Huh-7.5 cells and inhibitor was added 12 h post-infection at 5× EC50. Infection was allowed to progress for 96 h and cells were split 1∶1 with naïve Huh-7.5 cells in the presence of inhibitor and cultured for another 96 h. Viral supernatants were passed onto naïve Huh-7.5 cells in the presence of inhibitor and HCVcc replication in the presence of inhibitor was monitored by determining the spread of virus infection, using immunofluorescence (HCV Core), at each passage. Generally, virus stocks were prepared when HCVcc was ≥10-fold resistant relative to wild-type parental virus. The HCV genome was amplified by RT-PCR (Invitrogen), cloned and amino acid changes that arose during inhibitor selection were identified by analysis of the DNA sequence compared to the parent and control passages in the absence of inhibitor.

gt 1a/2a-Rluc virus [5] = test: Multi-cycle virus growth assay, Renilla luciferase readout (HTS); settings: for inhibition of luciferase expression: MOI 0.05, EI 1 µM added 16 h post-entry, LY411575 0.5 µM
Protocol: For compound library screening, infections were performed in 384-well plates by pre-mixing 400 ffu of gt 1a/2a-Rluc virus with 1×10^4 Huh-7.5 cells and dispensing 50 µl on top of 150 nl of compound in DMSO (final 0.3% DMSO) followed by incubation at 37°C. Renilla luciferase activity, reflecting the degree of virus replication, was measured 96 h after infection using the EnduRen reagent (Promega). […] Maximum activity (100% of control) and background were derived from control wells containing DMSO alone or from uninfected wells, respectively. The individual signals in each of the compound test wells were then divided by the averaged control values (wells lacking inhibitor), after background subtraction, and multiplied by 100% to determine percent activity. The corresponding % inhibition values were then calculated by subtracting this value from 100. Dose-response assays were performed in triplicate and average EC50 values (reflecting the concentration at which 50% inhibition of virus replication was achieved) were calculated using XLfit for Excel (ID Business Solutions, Burlington, MA). Cytotoxicity studies were performed in parallel using CellTiter-Glo (Promega). For high-content screening, virus and cells were prepared as above and 50 ul was dispensed into black 384 well optics plates (Thermo Scientific). At 96 h post-infection, cells were fixed for 20 min by adding 17 ul of 16% paraformaldehyde (Electron Microscopy Sciences) to achieve 4% final fixative. Cells were washed and permeabilized twice for 10 min each with PBS containing 1% TX-100 and 0.05% Tween-20 (wash buffer) and blocked for 15 min with PBS with 2% BSA (blocking buffer). […] The total number of cells per well (Hoechst staining) and infected cells per well (HCV Core) was measured using a Cellomics ArrayScan HCS Reader (Thermo Scientific) and EC50 values calculated as described above.

Row | Compound | size of HCV Core-positive virus foci (gt 1a/2a-Rluc virus [1]; 48 h pi, MOI 0.05, Huh-7.5) | inhibition of expansion of virus foci (gt 1a/2a-Rluc virus [1]; 96 h pi, MOI 0.05) | EC50 (gt 1a/2a-Rluc virus [2]; read-out: Cellomics (EC50)) | effect on Renilla luciferase expression in producer and target cells (gt 1a/2a-Rluc virus [3]) | Fold Resistance (gt 1a/2a-Rluc virus [4]) | % inhibition in a 96 h assay (gt 1a/2a-Rluc virus [5]; 384 well, 400 ffu of virus/well and 4,000 Huh7.5 cells (MOI = 0.1), 96 h) | inhibition of luciferase expression (gt 1a/2a-Rluc virus [5]; 48 h pi) | inhibition of luciferase expression (gt 1a/2a-Rluc virus [5]; 72 h pi) | inhibition of luciferase expression (gt 1a/2a-Rluc virus [5]; 96 h pi) | difference in potency at 96 h vs 48 h pi (multi- vs single-cycle) (gt 1a/2a-Rluc virus [5]; EC50 at 48 h vs 96 h pi) | EC50 (gt 1a/2a-Rluc virus [5]; read-out: Luciferase (EC50), 96 h, Huh-7.5 cells, Renilla luciferase readout, average ± SD of at least three experiments) | Cellomics (EC50) (gt 1a/2a-Rluc virus [2]) | Luciferase (EC50) (gt 1a/2a-Rluc virus [5]; 96 h, Huh-7.5 cells, Renilla luciferase readout, average ± SD of at least three experiments)
1 | C[C@H](NC(=O)[C@@H](O)c1cc(F)cc(F)c1)C(=O)N[C@@H]1C(=O)N(C)c2ccccc2-c2ccccc21 [LY411575] | 2.0±0.6 mean cells/foci | > 20 fold | 11 ± 4.1 nM | only affected Renilla luciferase expression in target cells | did not select for resistance through ten weeks of culture and None | > 90% | < 20% | > 80% | > 90% | > 200 fold | 10 ± 3.3 nM | – | –
2 | IFNα | – | – | – | – | – | – | – | – | – | – | – | 0.17±0.08 ^b International units per ml | 0.20±0.04 ^b International units per ml
